The source of these data is patent US20220195059A1, “Rank Pathway Inhibitors in Combination with CDK Inhibitors” (INSTITUTO DE MEDICINA MOLECULAR JOÃO LOBO ANTUNES, priority 2019, published 2022).

Data set [1] concerns cyclin D1, CDK4, CDK6, Cyclin E and CDK2 expression in RANK OE (MCF-7 OE) cells. The experiment in a line: Western blot of proteins involved in cyclin/CDKs complexes. As to conditions: 0, 24 or 72 hours. It counts as cell-based, human. On the procedure: Membranes were blocked for 1 h at room temperature (RT) in 5% Non-Fat Dry Milk (NFDM) in PBS-0.1% Tween (PBST) for β-actin; or in 5% bovine serum albumin (BSA) (Santa Cruz) for other antibodies. […] Proteins were detected using a Novex® ECL HRP chemiluminescent substrate reagent kit (Invitrogen) according to the manufacturer's instructions, and x-ray films (Fujifilm) developed in a Curix 60 processor (AGFA), or the Amersham™ Imager 680 (GE Healthcare Life Sciences). Normalized protein expression was calculated using FIJI software and band densitometry analysis.
Briefly, expression of cyclin D1, CDK4, CDK6, Cyclin E and CDK2 were analyzed by Western blotting cell lysates of RANK OE (MDF-7 OE) cells exposed to palbociclib for 0 hours, 24 hours or 72 hours, and compared to the corresponding expression levels in the parental counterpart cells (expressing low levels of RANK; MCF-7 cells). […]

The test system of data set [2] is MDA-MB-231 xenografts. The data set is described as follows: TNBC ectopic xenograft model. It is filed as in vivo, NSG mice. The settings on record: Palbociclib 30 mg/Kg/day p.o., 21 days; xenografts not regressed. On the procedure:
Based on these findings TNBC BC sensitivity to CDK4/6 inhibitors (palbociclib) in combination with RANK pathway blockage was tested in a TNBC ectopicxenograft model (FIG. 27). Nod scid gama (NSG) mice were inoculated subcutaneously and bilaterally in the flanks (n=5/group). Tumors were measured with caliper. When tumors reach approximately 100 mm^3 mice were randomized based on tumor size and treated according to the experimental protocol. Palbociclib was used at 30 mg/Kg/day for 21 consecutive days, as the human equivalent dose (HED) of 125 mg/day approved for palbociclib is equivalent to […] in mice (Nair and Jacob, J Basic Clin Pharm. 2016 March; 7(2):27-31). OPG-Fc was used at 10 mg/Kg 3×/week (HED 291.6 mg/15 days).
Nod scid gama (NSG) mice were inoculated subcutaneously and bilaterally in the flanks with MDA-MB-231 cells (n=4-5/group). Six weeks post inoculation mice were randomized based on tumor size and treated with OPG-Fc 10 mg/Kg i.p. 3× per week; Palbociclib 30 mg/Kg/day p.o. or the combination. […] The data are presented as mean±SEM. p-value was calculated using ANOVA, *p<0.05, **p<0.01, ***p<0.001.
Tumor growth was monitored every two days with caliper and tumor volume calculated using the formula Tvol=½(length×width^2). […]
TRAcP 5b was quantified in mouse serum using the MouseTRAP (TRAcP 5b) ELISA kit (IDS), according to the manufacturer instructions.

Data set [3] relates to MDA-MB-231 GFP+Luc+ xenografts. The data set is described as follows: Pilot study, orthotopic TNBC xenografts. It is filed as in vivo, NSG mice. As to conditions: measured throughout the experiment; between groups. On the procedure:
A pilot study to test the sensitivity of TNBC xenografts to CDK4/6 inhibitors (palbociclib) in combination with RANK pathway blockage (OPG-Fc) was performed. […] As shown in this figure, body weight was not different between groups. The proliferation index of tumors as measured by the quantification of Ki67-positive cells and p-pRB positive cells is shown in FIG. 13D. FIG. 13C is a series of images of Ki67-stained or p-pRb stained cells.

As to `CC(=O)c1c(C)c2cnc(Nc3ccc(N4CCNCC4)cn3)nc2n(C2CCCC2)c1=O` [palbociclib], the “CyclinD1, CDK4 and CDK2 expression upon exposure to CDK4/6 inhibitor” value in data set [1] is given as “increased”. Moreover, the “tumor growth (tumor volume)” value in data set [2] is on record as “slowing of tumor growth”. Also, the body weight entry in data set [3] is given as “not different”.
